Results on two molecules are retold here after ChEMBL document CHEMBL3217545, “Synthesis and study of 2-acetyl amino-3-[4-(2-amino-5-sulfo-phenylazo)-phenyl]-propionic acid: a new class of inhibitor for hen egg white lysozyme amyloidogenesis” (Medchemcomm, 2013).

Calls of active or inactive are those of the source. No cut-off for these calls is given here.

Data set [1] addresses Lysozyme C (Gallus gallus) (UniProt P00698). The data set can be described thus: Inhibition of hen egg white lysozyme fibrillization at 2 x 10^-4 M after 15 days by congo red dye-based crossed polarized optical microscopic analysis.
The target is the same in data set [2]. The data set is described as follows: Inhibition of hen egg white lysozyme fibrillization assessed as diameter of granular aggregate at 2 x 10^-4 M after 15 days by atomic force microscopic analysis (reference value: 50 to 80 nm).
The target is the same in data set [3]. The data set is described as follows: Inhibition of beta-sheet aggregation of hen egg white lysozyme at 2 x 10^-4 M after 15 days by FT-IR spectroscopic analysis.
Data set [4] shares this target. The data set is described as follows: Inhibition of beta-sheet aggregation of hen egg white lysozyme at 2 x 10^-4 M after 15 days by CD spectroscopic analysis.
Data set [5] has the same target. The data set can be described thus: Inhibition of hen egg white lysozyme fibrillization at 2 x 10^-4 M up to 100 hrs by Thioflavin T-based fluorescence assay.
Data set [6] has the same target. The data set is described as follows: Inhibition of hen egg white lysozyme fibrillization at 2 x 10^-4 M after 2 weeks by congo red dye-based UV/Vis spectroscopic analysis.
Data set [7] shares this target. The data set is described as follows: Binding affinity to hen egg white lysozyme assessed as formation of enzyme/compound complex formation at 2 x 10^-4 M by TCSPC spectroscopic analysis.
Data set [8] shares this target. The data set is described as follows: Binding affinity to hen egg white lysozyme at 2 x 10^-4 M by fluorescence spectroscopic analysis.
Data set [9] has the same target. The data set can be described thus: Binding affinity to hen egg white lysozyme at 2 x 10^-4 M by UV/Vis spectroscopic analysis.
A short description of data set [10]: Cytotoxicity against neuronal cells (unknown origin) by MTT assay. The note with it: neuron. Type of data set: cell-based. In general terms: Tetrazolium assays rely on reduction of a dye to a coloured formazan, in cell work by metabolically active cells.

Sequence of Lysozyme C (Gallus gallus) (P00698 whole entry): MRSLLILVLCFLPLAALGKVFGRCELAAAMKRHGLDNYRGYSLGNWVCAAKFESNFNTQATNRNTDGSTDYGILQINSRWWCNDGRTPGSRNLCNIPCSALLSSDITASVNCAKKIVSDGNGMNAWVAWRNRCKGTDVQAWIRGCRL

For the molecule `CC(=O)N[C@@H](Cc1ccc(/N=N/c2cc(S(=O)(=O)O)ccc2N)cc1)C(=O)O`, the inhibition entry in data set [1], in data set [3], in data set [4], in data set [5] and in data set [6] was “Active” throughout. Further, the Activity in [2] was 100 nm; in [10], “Non-toxic”. The result in data set [7], in data set [8] and in data set [9] was Active.

Regarding `Nc1ccc(S(=O)(=O)O)cc1/N=N/c1ccc(C[C@H](NC(=O)C(F)(F)F)C(=O)O)cc1`, the inhibition entry in data set [1], in data set [3], in data set [4], in [5] and in data set [6] was “Active” throughout. Moreover, the Activity in [2] is 100 nm; in data set [10] it was “Non-toxic”. Besides, the result in data set [7], in [8] and in data set [9] was Active.
